According to publication PMC5866846 (Archives of Toxicology, 2017):

Tests used:
[1] = target: CYP2C9 (Homo sapiens, UniProt P11712); experiment: CYP2C9 activity in upcyte hepatocytes after treatment (probe substrate cocktail); assay type: cell-based; set-up: host or cells: upcyte hepatocytes 653-03 and 653-03 #138 (653-03 2D6); conditions: upcyte hepatocytes, 72 h, 50 pM to 5 µM; read-out: EC50 of induction of CYP2C9 activity
Experimental: (§1) Cells were cultivated in hepatocyte culture medium at 37 °C and 5 °% CO2 in a humidified incubator. Before starting experiments, cells were cultivated in hepatocyte culture medium containing 0.5% (v/v) DMSO (Preculture medium) for 5 days (density of 0.8 × 10^4 cells/cm^2) and were subcultivated in high-performance medium containing 0.1% (v/v) DMSO (Metabolism conditioning medium) for 3–5 days (density of 1.6 × 10^5 cells/cm^2, confluence). The medium was replaced every 2–3 days.
(§2) In HLM and supersome™ incubations the formation rate is given as nmol µg^−1 min^−1 and fmol pmol^−1 min^−1, respectively, and was calculated as the mean ± SD. […] The intrinsic Clearance (Clint) was given as Vmax/Km ratio. […] Activity of CYP enzymes in induction assays is given as the fold-change (mean ± SD) compared to the corresponding DMSO-treated control. […] Gene expression patterns of treated cells are given as fold-change compared to the corresponding DMSO-treated control samples, as described above. […] In induction and inhibition experiments corresponding EC50 and IC50 values were calculated by nonlinear regression. In all experiments a level of probability (p) ≤ 0.05 for statistical testing was considered significant.
(§3) As control 0.05 % DMSO was used. The basal CYP activity and induction of CYP activity compared to the DMSO control were measured via HPLC-ESI-MS/MS.

[2] = tested on: CYP2B6; experiment: CYP2B6 activity in upcyte hepatocytes after treatment (probe substrate cocktail); conditions: human, probe bupropion (25 µM)
Experimental: as §1, §2, §3

[3] = tested on: CYP1A1 gene expression; experiment: CYP1A1 gene expression in upcyte hepatocytes (Fluidigm RT-PCR); assay type: cell-based, human; conditions: 5 µM, 72 h, both cell strains
Excerpt: (§4) Differences between induced and control samples were compared using Welch’s t-test (GraphPad Prism, version 5.04), when the fold-change was considered biologically relevant (1.5-fold increase or decrease in fold-changes) and corrected for multiple testing according to Bonferroni. […] An unpaired t-test assuming unequal variances was used for testing of differences in the expression patterns, when the fold-change was considered biologically relevant (1.5-fold increase or decrease in fold-changes) and corrected using Bonferroni adjustments.

[4] = tested on: estrogen receptor; set-up: method as in Johnson et al. [1989]; Murphy et al. [1990]; conditions: in vitro, estrogen-dependent breast cancer cell lines; ref Johnson et al. [1989]; Murphy et al. [1990]; cited from earlier work
[5] = tested on: CYP1A2; experiment: CYP1A2 activity in upcyte hepatocytes after treatment (probe substrate cocktail)
Experimental: as §1, §2, §3

[6] = target: CYP2C19 (Homo sapiens, UniProt P33261); experiment: CYP2C19 activity in upcyte hepatocytes after treatment (probe substrate cocktail); assay type: cell-based; set-up: host or cells: upcyte hepatocytes 653-03 and 653-03 #138 (653-03 2D6); conditions: upcyte hepatocytes, 72 h, 50 pM to 5 µM; read-out: EC50 of induction of CYP2C19 activity
Experimental: as §1, §2, §3

[7] = tested on: CYP1A2, 2C19, 2C9, 2B6, 3A4 and 2C8; experiment: CYP activity in upcyte hepatocytes after treatment, all tested CYP isoenzymes together; assay type: cell-based, human; conditions: 5 µM, 72 h
Experimental: as §1, §2

[8] = tested on: upcyte hepatocytes 653-03 2D6; experiment: Tam metabolism in upcyte hepatocytes 653-03 2D6, metabolites in culture medium; assay type: in vitro ADME, human
Experimental: (§5) The medium was replaced every 2–3 days. […].
(§6) The culture medium was collected after 24, 48, 72, 96 and 144 h followed by metabolite measurements using HPLC-ESI-MS/MS.
(§7) Protein was precipitated by the addition of ACN containing 1% of acetic acid and the corresponding deuterated internal standards to the same volume of the sample followed by centrifugation at 20.000 g for 15 min at RT. […] Analytes were separated on a Zorbax Eclipse Plus C18 column (1.8 µm, 100 × 2.1 mm, Agilent technologies) and detected on a 6460 triple quadrupole mass spectrometer (Agilent technologies) in positive ESI MRM mode. Glucuronides of estrogen-like metabolites were detected separately via MS/MS-measurements in negative ESI MRM mode.
(§8) […]. […] […].

[9] = tested on: SLC22A7 gene expression; experiment: SLC22A7 gene expression in upcyte hepatocytes (Fluidigm RT-PCR); assay type: cell-based, human; conditions: 5 µM, 72 h, both cell strains
Excerpt: (§9) Total RNA was isolated from cells using the Direct-zol™ RNA MiniPrep kit (Zymo Research Corp., Irvine, California). cDNA was synthesized using TaqMan Reverse Transcription Reagents (Life technologies, Applera GmbH, Darmstadt, Germany) and the expression of 25 genes representative of phase I and phase II drug metabolism and transport was quantified by Fluidigm’s BioMark HD high-throughput quantitative chip platform (Fluidigm Corporation, San Francisco, USA). For relative gene expression analysis, the delta-delta-Ct (ΔΔCt) method was used: the Ct values of the target mRNA were first normalized to those of the endogenous control glyceraldehyde-3-phosphate dehydrogenase (GAPDH) followed by dividing values of experimental samples by their corresponding DMSO-treated controls to calculate the x-fold changes of mRNA expression.
In HLM and supersome™ incubations the formation rate is given as nmol µg^−1 min^−1 and fmol pmol^−1 min^−1, respectively, and was calculated as the mean ± SD. […] The intrinsic Clearance (Clint) was given as Vmax/Km ratio. […] In induction and inhibition experiments corresponding EC50 and IC50 values were calculated by nonlinear regression. […]
as §3

[10] = target: T1, CYP2C8 (Homo sapiens, UniProt P10632); experiment: CYP2C8 activity in upcyte hepatocytes after treatment (probe substrate cocktail); assay type: cell-based; set-up: host or cells: upcyte hepatocytes 653-03 and 653-03 #138 (653-03 2D6); conditions: upcyte hepatocytes, 72 h, 50 pM to 5 µM; read-out: EC50 of induction of CYP2C8 activity
T1 sequence (P10632 1-490): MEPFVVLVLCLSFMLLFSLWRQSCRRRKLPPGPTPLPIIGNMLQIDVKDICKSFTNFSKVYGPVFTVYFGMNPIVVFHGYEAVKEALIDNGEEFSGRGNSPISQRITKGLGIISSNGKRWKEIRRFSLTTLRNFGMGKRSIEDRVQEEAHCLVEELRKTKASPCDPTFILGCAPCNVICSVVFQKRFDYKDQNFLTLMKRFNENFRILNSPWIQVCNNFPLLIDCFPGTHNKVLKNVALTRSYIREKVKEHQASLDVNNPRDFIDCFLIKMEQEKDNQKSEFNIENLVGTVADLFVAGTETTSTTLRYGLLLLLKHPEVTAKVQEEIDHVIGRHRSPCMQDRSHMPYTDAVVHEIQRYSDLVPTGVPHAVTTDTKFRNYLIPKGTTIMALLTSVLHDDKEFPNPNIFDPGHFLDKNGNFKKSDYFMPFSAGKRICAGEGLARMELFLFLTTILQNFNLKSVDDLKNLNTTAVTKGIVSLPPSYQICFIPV
Experimental: as §1, §2, §3

[11] = tested on: ABCG2 gene expression; experiment: ABCG2 gene expression in upcyte hepatocytes (Fluidigm RT-PCR); assay type: cell-based, human; conditions: 5 µM, 72 h, both cell strains
Excerpt: as §4

[12] = tested on: CYP3A4 gene expression; experiment: CYP3A4 gene expression in upcyte hepatocytes (Fluidigm RT-PCR); conditions: 5 µM, 72 h, both cell strains
Excerpt: as §9, §2, §3

[13] = tested on: CYP3A4; experiment: CYP3A4 activity in upcyte hepatocytes after treatment (probe substrate cocktail); conditions: human, probe atorvastatin (35 µM), EC50 of induction of CYP3A4 activity, upcyte hepatocytes, 72 h, 50 pM to 5 µM
Experimental: as §1, §2, §3

[14] = tested on: upcyte hepatocytes 653-03; experiment: Tam metabolism in upcyte hepatocytes 653-03 (parental), metabolites in culture medium; assay type: in vitro ADME, human; conditions: 1 µM Tam, 653-03 cells
Experimental: as §5, §6, §7, §8

[15] = tested on: SLC10A1 gene expression; experiment: SLC10A1 gene expression in upcyte hepatocytes (Fluidigm RT-PCR); assay type: cell-based, human; conditions: 5 µM, 72 h, both cell strains
Excerpt: as §4

Chain of CYP2C19 (P33261 whole entry): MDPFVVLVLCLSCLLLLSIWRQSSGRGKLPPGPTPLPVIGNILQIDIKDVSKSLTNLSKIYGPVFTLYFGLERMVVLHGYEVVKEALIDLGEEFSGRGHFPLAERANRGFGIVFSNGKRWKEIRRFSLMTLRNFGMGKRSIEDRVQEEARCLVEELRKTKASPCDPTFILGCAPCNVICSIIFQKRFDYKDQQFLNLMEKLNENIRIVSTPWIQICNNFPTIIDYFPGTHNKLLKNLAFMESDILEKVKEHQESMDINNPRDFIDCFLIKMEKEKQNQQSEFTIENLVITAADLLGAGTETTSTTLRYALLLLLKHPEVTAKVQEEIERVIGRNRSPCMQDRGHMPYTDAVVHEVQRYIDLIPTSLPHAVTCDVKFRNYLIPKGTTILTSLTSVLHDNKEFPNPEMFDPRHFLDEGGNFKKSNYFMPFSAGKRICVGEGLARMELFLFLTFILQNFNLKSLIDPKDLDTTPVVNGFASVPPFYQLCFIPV
Chain of CYP2C9 (P11712 whole entry): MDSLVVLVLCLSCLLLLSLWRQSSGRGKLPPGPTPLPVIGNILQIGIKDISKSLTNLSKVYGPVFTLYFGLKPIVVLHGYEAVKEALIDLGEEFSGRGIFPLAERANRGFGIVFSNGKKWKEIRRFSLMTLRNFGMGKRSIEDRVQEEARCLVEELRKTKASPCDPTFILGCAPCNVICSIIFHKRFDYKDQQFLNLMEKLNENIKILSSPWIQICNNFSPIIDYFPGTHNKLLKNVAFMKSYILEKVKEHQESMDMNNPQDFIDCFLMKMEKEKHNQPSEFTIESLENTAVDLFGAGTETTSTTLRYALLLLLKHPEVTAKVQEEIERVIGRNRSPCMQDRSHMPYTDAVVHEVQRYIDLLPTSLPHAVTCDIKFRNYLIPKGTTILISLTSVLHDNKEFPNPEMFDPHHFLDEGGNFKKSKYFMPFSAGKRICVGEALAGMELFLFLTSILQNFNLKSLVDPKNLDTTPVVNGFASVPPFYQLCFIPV

With `CCC(=C(c1ccc(O)cc1)c1ccc(O)cc1)c1ccccc1` [Tam-Bis, 4-[1-(4-hydroxyphenyl)-2-phenylbut-1-en-1-yl]phenol] the EC50 [1] was 488 nM, the EC50 at 72 h [2] was 187 nM and the “CYP1A1 gene expression, induction vs DMSO control” value [3] was “up to 4.5 fold”. For the same compound, the “agonism regarding estrogen-regulated mRNA expression” value [4] was “full agonists”, the EC50 at 72 h ([5]; human, EC50 of induction of CYP1A2 activity, 50 pM to 5 µM) was > 400 nM and the EC50 ([5]; read-out: EC50 of induction of CYP1A2 activity, 72 h, 50 pM to 5 µM) was 518 nM. The EC50 [6] was 30.5 nM, the “inhibitory effect on the tested CYP enzymes” value [7] was “no inhibitory effect” and the “concentration in the supernatant” value ([8]; 1 µM Tam, 653-03 2D6 cells) was “up to 87.5 pM”. For the same compound, the “concentration in the supernatant of 653-03 2D6 cells relative to parental cells” value ([8]; cells incubated with 1 µM Tam up to 144 h) was “up to 4 times”, the “SLC22A7 gene expression, fold lower than DMSO control” value [9] was “up to 2.5 fold” and the EC50 [10] was 400 nM. The “ABCG2 gene expression, induction vs DMSO control” value [11] was “up to 4.5 fold”, the “CYP3A4 gene expression, induction vs DMSO control” value [12] was “up to 4.5 fold” and the “CYP3A4 gene expression, induction vs DMSO control” value ([12]; listed as tamoxifen bisphenol) was “up to 5.6 fold”. For the same compound, the EC50 at 72 h [13] was 178 nM, the “concentration in the supernatant” value [14] was 0.0306 nM and the “SLC10A1 gene expression, downregulation (fold lower)” value [15] was “up to 2.5 fold”.
